From US20130267484A1, “TREATMENT OF RHEUMATOID ARTHRITIS WITH MASITINIB” (AB SCIENCE, priority 2010, published 2013)
Several values for one entry are separate records, joined by “and”; a condition that tells them apart may be missing. Equal values may be shown once.

System: DMARD-refractory active RA
Assay: Phase 2a trial of masitinib in DMARD-refractory active RA: efficacy (ACR, ACRn, CRP, DAS28)
Format: in vivo, Human
Parameters: ACRn Mean ± SD / ACRn Median: unit not given here
Source text: The main exclusion criteria were patients with: inadequate bone marrow function, defined as an absolute neutrophil count ≦2.5×10^9/litre, and platelets ≦100×10^9/litre; active current infection, history of infection requiring hospitalisation, history of recurrent infections, or treatment with antibiotics within 2 weeks of screening. Treatment wash-out periods observed prior to entry to the study were: a) DMARD use within 4 weeks; b) five half-lives, or wash-out in accordance for a specific drug, whichever is longer; c) any live (attenuated) vaccines taken within 4 weeks; d) use of more than one NSAID or its dosage change within 4 weeks; e) prednisone or equivalent corticosteroid dosage >10 mg/day or any dosage change within 4 weeks; and f) prednisone or equivalent corticosteroid dosage >20 mg administered via intra-articular injection, bolus intramuscular or intravenous treatment within 4 weeks. Other exclusion criteria included any previous use of recombinant interleukin-1 receptor antagonist (IL1-Ra) and patients who were pregnant or nursing.
Efficacy data are presented using descriptive statistics, contrasting initial dosage groups or according to previous DMARD failure. For comparison of groups according to initial dosage on a continuous variable, Student test (with Satterwhaite correction for unequal variance) or Wilcoxon test were used when normality was not rejected or rejected, respectively (normality determined via the Shapiro-Wilk test). For the same comparison on a qualitative variable, Chi-square or Fisher Exact test (if the Chi-square hypotheses were not filled) were used. The rate of patients achieving the various ACR response variables after 12 weeks of treatment (remission rate) are presented in terms of percentage and number of patients. Patients were assigned to either 3 or 6 mg/kg/day treatment groups based upon a randomisation schedule generated for packaging and labelling by the Biostatistics Section of AB Science. Individual treatment doses to be administered were supplied in sealed envelopes to be opened by the investigator at time of inclusion. Patients received the treatment from the investigator on an open basis.
Due to the relatively high patient drop-out rate of this study, analysis was conducted on two different datasets: one with an imputation of missing values according to the last observation carried forward (LOCF) methodology and the other in the absence of data imputation, i.e. the observed cases (OC). Analysis for efficacy was performed on a modified Intention-To-Treat (ITT) population and Per Protocol (PP) population. […] The PP population was defined as a subgroup of the ITT population that in addition had presented no major protocol deviations and had completed at least 28 days of treatment exposure.

[1] = W 60, extension phase, ITT population, n = 8
[2] = W 72, extension phase, ITT population, n = 7
[3] = W 72, extension phase, ITT population, n = 9
[4] = W 84, extension phase, ITT population, n = 4
[5] = W 84, extension phase, ITT population, n = 8
[6] = initial dosage 3 mg/kg/day (n = 22), ITT population
[7] = initial dosage 3 mg/kg/day (n = 22), ITT population, listed as Masitinib
[8] = initial dosage 6 mg/kg/day (n = 18), ITT population
[9] = week 12, ITT LOCF, All patients (n = 34)
[10] = week 12, ITT LOCF, All patients (n = 39)
[11] = week 12, ITT LOCF, Resistance to MTX (n = 28)
[12] = week 12, ITT LOCF, Resistance to MTX (n = 32)
[13] = week 12, ITT LOCF, Resistance to anti-TNFα (n = 18)
[14] = week 12, ITT LOCF, Resistance to anti-TNFα (n = 19)
[15] = week 12, PP OC, All patients (n = 24)
[16] = week 12, PP OC, All patients (n = 27)
[17] = week 12, PP OC, Resistance to MTX (n = 20)
[18] = week 12, PP OC, Resistance to MTX (n = 23)
[19] = week 12, PP OC, Resistance to anti-TNFα (n = 13)
[20] = week 12, PP OC, Resistance to anti-TNFα (n = 14)

Cc1ccc(NC(=O)c2ccc(CN3CCN(C)CC3)cc2)cc1Nc1nc(-c2cccnc2)cs1 [masitinib, 4-(4-methylpiperazin-1-ylmethyl)-N-[4-methyl-3-(4-pyridin-3ylthiazol-2-ylamino)phenyl]benzamide]
ACRn Median [1]: 64.9 | ACRn Min-Max [1]: 10.0-93.3 | DAS28 <2.6, patients [2]: 1 (14%) | DAS28 Mean ± SD [2]: 3.5 ± 1.5 | DAS28 Median [2]: 3.0 | DAS28 Min-Max [2]: 1.6-6.1 | DAS28 ≦3.2, patients [2]: 4 (57%) | ACR20, patients reaching level [3]: 6 (67%) | ACR50, patients reaching level [3]: 3 (33%) | ACR70, patients reaching level [3]: 2 (22%) | ACR90, patients reaching level [3]: 1 (11%) | ACRn Mean ± SD [3]: 35.6 ± 41.3 | ACRn Median [3]: 39.7 | ACRn Min-Max [3]: −27.8-97.4 | CRP 0% < Improvement ≦25%, patients [3]: 1 (11%) | CRP 25% < Improvement ≦50%, patients [3]: 1 (11%) | CRP Deterioration, patients [3]: 1 (11%) | CRP Improvement >50%, patients [3]: 6 (68%) | CRP Stable, patients [3]: 0 (0%) | DAS28 <2.6, patients [4]: 2 (50%) | DAS28 Mean ± SD [4]: 3.1 ± 1.6 | DAS28 Median [4]: 2.5 | DAS28 Min-Max [4]: 1.9-5.5 | DAS28 ≦3.2, patients [4]: 3 (75%) | ACR20, patients reaching level [5]: 7 (88%) | ACR50, patients reaching level [5]: 5 (63%) | ACR70, patients reaching level [5]: 2 (25%) | ACR90, patients reaching level [5]: 1 (13%) | ACRn Mean ± SD [5]: 50.9 ± 38.0 | ACRn Median [5]: 55.0 | ACRn Min-Max [5]: −17.6-98.8 | CRP 0% < Improvement ≦25%, patients [5]: 1 (13%) | CRP 25% < Improvement ≦50%, patients [5]: 1 (13%) | CRP Deterioration, patients [5]: 1 (13%) | CRP Improvement >50%, patients [5]: 5 (63%) | CRP Stable, patients [5]: 0 (0%) | Share of patients achieving ACR20 who did so at the stated dosage at time of first response (dosage not given): approximately 65% | Share of patients achieving ACR50 who did so at the stated dosage at time of first response (dosage not given): ~73% | Patients achieving up to 90% improvement (ACR90) (extension phase, after 1 year of treatment (60 weeks)): two | Duration over which observed improvement is maintained (extension phase, preliminary): > 84 weeks | Time to first response ACR20, Mean ± SD [6]: 51.9 ± 24.5 days | Time to first response ACR20, Median [6]: 56 days | Time to first response ACR20, Min-Max [6]: 28.0 to 105.0 days | Time to first response ACR50, Mean ± SD [6]: 91.9 ± 59.5 days | Time to first response ACR50, Median [6]: 84 days | Time to first response ACR50, Min-Max [6]: 28.0 to 217.0 days | Time to first response ACR20, Median [7]: 56.0 days | Time to first response ACR50, Median [7]: 84.0 days | Time to first response ACR20, Mean ± SD [8]: 40.3 ± 19.0 days | Time to first response ACR20, Median [8]: 29 days | Time to first response ACR20, Min-Max [8]: 28.0 to 86.0 days | Time to first response ACR50, Mean ± SD [8]: 86.8 ± 61.1 days | Time to first response ACR50, Median [8]: 72.5 days | Time to first response ACR50, Min-Max [8]: 28.0 to 203.0 days | Time to first response ACR20, Median (initial dosage 6 mg/kg/day (n = 18), ITT population, listed as Masitinib): 29.0 days | Patients achieving ACR20 and ΔCRP>50% response criteria (regardless of previous treatment (anti-TNFα or MTX failure)): approximately 50% | Patients with significant reduction (>50%) in CRP levels (week 12): approximately 50% | DAS28 Mean ± SD [9]: 4.8 ± 1.5 | DAS28 Min-Max [9]: 0.5-7.0 | ΔDAS28 (change in DAS28 score from baseline) [9]: 1.7 | ACRn Mean ± SD [10]: 23.0 and 23.0 ± 37.5 | ACRn Median [10]: 25.7 | ACRn Min-Max [10]: −62.5-87.5 | DAS28 Mean ± SD [11]: 4.8 ± 1.5 | DAS28 Min-Max [11]: 0.5-7.0 | ΔDAS28 (change in DAS28 score from baseline) [11]: 1.8 | ACRn Mean ± SD [12]: 24.1 ± 38.8 | ACRn Median [12]: 32.7 | ACRn Min-Max [12]: −62.5-87.5 | DAS28 Mean ± SD [13]: 5.2 ± 1.1 | DAS28 Min-Max [13]: 3.3-7.0 | ΔDAS28 (change in DAS28 score from baseline) [13]: 1.7 | ACRn Mean ± SD [14]: 18.7 ± 36.8 | ACRn Median [14]: 20.6 | ACRn Min-Max [14]: −62.5-72.2 | DAS28 Mean ± SD [15]: 4.6 ± 1.3 | DAS28 Min-Max [15]: 0.5-7.0 | ΔDAS28 (change in DAS28 score from baseline) [15]: 2.0 | ACRn Mean ± SD [16]: 31.6 | ACRn Median [16]: 42.9 | ACRn Min-Max [16]: −40.0-87.5 | DAS28 Mean ± SD [17]: 4.6 ± 1.4 | DAS28 Min-Max [17]: 0.5-7.0 | ΔDAS28 (change in DAS28 score from baseline) [17]: 2.1 | ACRn Mean ± SD [18]: 36.6 ± 31.6 | ACRn Median [18]: 46.9 | ACRn Min-Max [18]: −40.0-87.5 | DAS28 Mean ± SD [19]: 5.1 ± 1.2 | DAS28 Min-Max [19]: 3.3-7.0 | ΔDAS28 (change in DAS28 score from baseline) [19]: 1.8 | ACRn Mean ± SD [20]: 28.1 ± 32.1 | ACRn Median [20]: 44.3 | ACRn Min-Max [20]: 40.0-72.2
